Assays:
Assay in all cases: relative viability (nuclei count vs DMSO), 5 days (fraction); higher = more cells survive
[1] = compound: C#Cc1cccc(Nc2ncnc3cc(OCCOC)c(OCCOC)cc23)c1 [Erlotinib] + Cc1nc(Nc2ncc(C(=O)Nc3c(C)cccc3Cl)s2)cc(N2CCN(CCO)CC2)n1 [Dasatinib] (partner 0.075 µM)
Outline: (§1)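 Dosing by pin tool came one day after lung cancer cell lines were seeded in 1536-well plates, using either one drug or a fixed anchor-drug dose plus five library-drug doses (not always all listed) in √10 steps. After 5 days, nuclei were counted on 4× images. Relative viability is treated-well nuclei count divided by vehicle-well nuclei count, and values are medians of duplicate plates.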

[2] = compound: C#Cc1cccc(Nc2ncnc3cc(OCCOC)c(OCCOC)cc23)c1 [Erlotinib] + Nc1nc2[nH]cc(CCc3ccc(C(=O)N[C@@H](CCC(=O)O)C(=O)O)cc3)c2c(=O)[nH]1 [Pemetrexed] (partner 0.2 µM)
Outline: as §1

[3] = compound: C#Cc1cccc(Nc2ncnc3cc(OCCOC)c(OCCOC)cc23)c1 [Erlotinib] + CC1(C)CCC(c2ccc(Cl)cc2)=C(CN2CCN(c3ccc(C(=O)NS(=O)(=O)c4ccc(N[C@H](CCN5CCOCC5)CSc5ccccc5)c(S(=O)(=O)C(F)(F)F)c4)cc3)CC2)C1 [Navitoclax] (partner 0.5 µM)
Outline: as §1

NCI-H1623
relative viability ([1]; first compound 0.02 µM): 0.562 | relative viability ([1]; first compound 0.2 µM): 0.517 | relative viability ([1]; first compound 0.6325 µM): 0.315 | relative viability ([1]; first compound 2 µM): 0.366

NCI-H1648
relative viability ([2]; first compound 0.02 µM): 0.759 | relative viability ([2]; first compound 0.2 µM): 0.707 | relative viability ([2]; first compound 0.6325 µM): 0.629 | relative viability ([2]; first compound 2 µM): 0.66

NCI-H1650
relative viability ([3]; first compound 0.02 µM): 1.15 | relative viability ([3]; first compound 0.2 µM): 1.23 | relative viability ([3]; first compound 0.6325 µM): 1.14 | relative viability ([3]; first compound 2 µM): 0.924 | relative viability ([2]; first compound 0.02 µM): 0.337 | relative viability ([2]; first compound 0.2 µM): 0.324 | relative viability ([2]; first compound 0.6325 µM): 0.352 | relative viability ([2]; first compound 2 µM): 0.298 | relative viability ([1]; first compound 0.02 µM): 0.283 | relative viability ([1]; first compound 0.2 µM): 0.265 | relative viability ([1]; first compound 0.6325 µM): 0.282 | relative viability ([1]; first compound 2 µM): 0.325

NCI-H1651
relative viability ([3]; first compound 0.02 µM): 1.04 | relative viability ([3]; first compound 0.2 µM): 0.861 | relative viability ([3]; first compound 0.6325 µM): 1.11 | relative viability ([3]; first compound 2 µM): 0.934 | relative viability ([2]; first compound 0.02 µM): 0.619 | relative viability ([2]; first compound 0.2 µM): 0.417 | relative viability ([2]; first compound 0.6325 µM): 0.509 | relative viability ([2]; first compound 2 µM): 0.52 | relative viability ([1]; first compound 0.02 µM): 0.37 | relative viability ([1]; first compound 0.2 µM): 0.39 | relative viability ([1]; first compound 0.6325 µM): 0.469 | relative viability ([1]; first compound 2 µM): 0.387

NCI-H1666
relative viability ([3]; first compound 0.02 µM): 0.999 | relative viability ([3]; first compound 0.2 µM): 0.817 | relative viability ([3]; first compound 0.6325 µM): 0.407 | relative viability ([3]; first compound 2 µM): 0.347 | relative viability ([2]; first compound 0.02 µM): 0.81 | relative viability ([2]; first compound 0.2 µM): 0.693 | relative viability ([2]; first compound 2 µM): 0.753 | relative viability ([1]; first compound 0.2 µM): 0.759 | relative viability ([1]; first compound 0.6325 µM): 0.828 | relative viability ([1]; first compound 2 µM): 0.64

NCI-H1703
relative viability ([3]; first compound 0.02 µM): 1.1 | relative viability ([3]; first compound 0.2 µM): 1.09 | relative viability ([3]; first compound 0.6325 µM): 1.32 | relative viability ([3]; first compound 2 µM): 1.11

NCI-H1734
relative viability ([3]; first compound 0.02 µM): 0.852 | relative viability ([3]; first compound 0.2 µM): 0.795 | relative viability ([3]; first compound 0.6325 µM): 0.907 | relative viability ([3]; first compound 2 µM): 0.75 | relative viability ([2]; first compound 0.02 µM): 0.45 | relative viability ([2]; first compound 0.2 µM): 0.39 | relative viability ([2]; first compound 0.6325 µM): 0.4 | relative viability ([2]; first compound 2 µM): 0.397 | relative viability ([1]; first compound 0.02 µM): 0.574 | relative viability ([1]; first compound 0.2 µM): 0.482 | relative viability ([1]; first compound 0.6325 µM): 0.473 | relative viability ([1]; first compound 2 µM): 0.428

NCI-H1755
relative viability ([3]; first compound 0.02 µM): 1.02 | relative viability ([3]; first compound 0.2 µM): 1 | relative viability ([3]; first compound 0.6325 µM): 0.976 | relative viability ([2]; first compound 0.02 µM): 0.477 | relative viability ([2]; first compound 0.2 µM): 0.398 | relative viability ([2]; first compound 0.6325 µM): 0.402 | relative viability ([2]; first compound 2 µM): 0.368 | relative viability ([1]; first compound 0.02 µM): 0.451 | relative viability ([1]; first compound 0.2 µM): 0.409 | relative viability ([1]; first compound 0.6325 µM): 0.386 | relative viability ([1]; first compound 2 µM): 0.433

NCI-H1792
relative viability ([3]; first compound 0.02 µM): 0.451 | relative viability ([3]; first compound 0.2 µM): 0.545 | relative viability ([3]; first compound 0.6325 µM): 0.84 | relative viability ([3]; first compound 2 µM): 0.579 | relative viability ([2]; first compound 0.02 µM): 1.05 | relative viability ([2]; first compound 0.2 µM): 0.629 | relative viability ([2]; first compound 0.6325 µM): 1.02 | relative viability ([2]; first compound 2 µM): 0.51 | relative viability ([1]; first compound 0.02 µM): 0.875 | relative viability ([1]; first compound 0.2 µM): 0.655 | relative viability ([1]; first compound 0.6325 µM): 0.981 | relative viability ([1]; first compound 2 µM): 0.608

NCI-H1793
relative viability ([3]; first compound 0.02 µM): 0.447 | relative viability ([3]; first compound 0.2 µM): 0.325 | relative viability ([3]; first compound 0.6325 µM): 0.297 | relative viability ([3]; first compound 2 µM): 0.387 | relative viability ([2]; first compound 0.02 µM): 1.01 | relative viability ([2]; first compound 0.2 µM): 0.441 | relative viability ([2]; first compound 0.6325 µM): 0.825 | relative viability ([2]; first compound 2 µM): 0.52 | relative viability ([1]; first compound 0.02 µM): 0.342 | relative viability ([1]; first compound 0.2 µM): 0.249 | relative viability ([1]; first compound 0.6325 µM): 0.392 | relative viability ([1]; first compound 2 µM): 0.272

NCI-H1915
relative viability ([3]; first compound 0.02 µM): 0.865 | relative viability ([3]; first compound 0.2 µM): 0.807 | relative viability ([3]; first compound 0.6325 µM): 0.841 | relative viability ([3]; first compound 2 µM): 0.745 | relative viability ([2]; first compound 0.02 µM): 0.532 | relative viability ([2]; first compound 0.2 µM): 0.482 | relative viability ([2]; first compound 0.6325 µM): 0.434 | relative viability ([2]; first compound 2 µM): 0.487 | relative viability ([1]; first compound 0.02 µM): 0.338 | relative viability ([1]; first compound 0.2 µM): 0.376 | relative viability ([1]; first compound 0.6325 µM): 0.327 | relative viability ([1]; first compound 2 µM): 0.273

NCI-H1944
relative viability ([3]; first compound 0.02 µM): 0.989 | relative viability ([3]; first compound 0.2 µM): 0.912 | relative viability ([3]; first compound 0.6325 µM): 0.941 | relative viability ([3]; first compound 2 µM): 0.796 | relative viability ([2]; first compound 0.02 µM): 0.586 | relative viability ([2]; first compound 0.2 µM): 0.506 | relative viability ([2]; first compound 0.6325 µM): 0.536 | relative viability ([2]; first compound 2 µM): 0.358 | relative viability ([1]; first compound 0.02 µM): 0.213 | relative viability ([1]; first compound 0.2 µM): 0.219 | relative viability ([1]; first compound 0.6325 µM): 0.237 | relative viability ([1]; first compound 2 µM): 0.21

NCI-H1975
relative viability ([3]; first compound 0.02 µM): 1.11 | relative viability ([3]; first compound 0.2 µM): 1.07 | relative viability ([3]; first compound 0.6325 µM): 1.07 | relative viability ([3]; first compound 2 µM): 0.977 | relative viability ([2]; first compound 0.02 µM): 0.288 | relative viability ([2]; first compound 0.2 µM): 0.294 | relative viability ([2]; first compound 0.6325 µM): 0.292 | relative viability ([2]; first compound 2 µM): 0.263 | relative viability ([1]; first compound 0.02 µM): 0.391 | relative viability ([1]; first compound 0.2 µM): 0.407 | relative viability ([1]; first compound 0.6325 µM): 0.372 | relative viability ([1]; first compound 2 µM): 0.205

NCI-H1993
relative viability ([3]; first compound 0.02 µM): 0.848 | relative viability ([3]; first compound 0.2 µM): 0.725 | relative viability ([3]; first compound 0.6325 µM): 0.786 | relative viability ([3]; first compound 2 µM): 0.722 | relative viability ([2]; first compound 0.02 µM): 0.63 | relative viability ([2]; first compound 0.2 µM): 0.466 | relative viability ([2]; first compound 0.6325 µM): 0.544 | relative viability ([2]; first compound 2 µM): 0.564 | relative viability ([1]; first compound 0.02 µM): 0.579 | relative viability ([1]; first compound 0.2 µM): 0.531 | relative viability ([1]; first compound 0.6325 µM): 0.553 | relative viability ([1]; first compound 2 µM): 0.586

NCI-H2342
relative viability ([2]; first compound 0.02 µM): 0.707 | relative viability ([2]; first compound 0.2 µM): 0.822 | relative viability ([2]; first compound 0.6325 µM): 0.715 | relative viability ([2]; first compound 2 µM): 0.583 | relative viability ([1]; first compound 0.02 µM): 0.289 | relative viability ([1]; first compound 0.2 µM): 0.323 | relative viability ([1]; first compound 0.6325 µM): 0.304 | relative viability ([1]; first compound 2 µM): 0.26

SW 900
relative viability ([2]; first compound 0.02 µM): 0.497 | relative viability ([2]; first compound 0.2 µM): 0.495 | relative viability ([2]; first compound 0.6325 µM): 0.461 | relative viability ([2]; first compound 2 µM): 0.445 | relative viability ([1]; first compound 0.02 µM): 0.655 | relative viability ([1]; first compound 0.2 µM): 0.506 | relative viability ([1]; first compound 0.6325 µM): 0.517 | relative viability ([1]; first compound 2 µM): 0.374

From the supplement of paper PMC10307832
